Reference: US8399403B2, “Chemical linkers and conjugates thereof” (priority 2004, dated 2013)

Key:
[1] = Rate of cyclization of 6-membered hydrazine linker in buffer; format: physicochemical; details: incubated in buffer at pH 7.4, assessed over time
Method: A duocarmycin analog conjugated to a dimethyl 6-membered hydrazine linker was incubated in buffer at pH 7.4 for 24 hours and the generation of cyclized product resulting from cyclization of the hydrazine linker, thereby releasing free duocarmycin analog, was assessed over time.
A duocarmycin analog conjugated to a gem-dimethyl 6-membered hydrazine linker was incubated in buffer at pH 7.4 and the generation of cyclized product resulting from cyclization of the hydrazine linker, thereby releasing free duocarmycin analog, was assessed over time.

[2] = in vitro and in experimental animals; cited from earlier work
experimental animals = details: cited from earlier work

Compound	generation of cyclized product resulting from cyclization of the hydrazine linker (release of free duocarmycin analog) [1]	antitumor and antimicrobial activity [2]	toxicity in experimental animals (experimental animals)
COC(=O)c1c(C)[nH]c2c(OC(=O)N(C)CC(=O)N(C)N)cc3c(c12)[C@H](CCl)CN3C(=O)c1cc2cc(OC)ccc2o1	Minimal amounts of cyclized product were detected over 24 hours		
COC(=O)c1c(C)[nH]c2c(OC(=O)N(C)C(C)(C)C(=O)N(C)N)cc3c(c12)[C@H](CCl)CN3C(=O)c1cc2cc(OC)ccc2o1	proceeding to completion within a few minutes		
COc1c(O)c2c(c3cc(C(=O)N4CCc5c4c(O)c(OC)c4[nH]c(C(=O)N6CC7CC78C6=CC(=O)c6[nH]cc(C)c68)cc54)[nH]c13)CCN2C(N)=O (stereo not shown) [CC-1065]		potent antitumor and antimicrobial activity	causes delayed death in experimental animals
